Data: patent US8143374B2, “Polypeptide derivatives of parathyroid hormone (PTH)” (The General Hospital Corporation, priority 2006, dated 2012)
Like-named read-outs stand apart in the source and are kept apart here. Where a SMILES comes first, the peptide text is derived from it. [ ]: non-standard residue; d: D form. Cha = N[C@@H](CC1CCCCC1)C(=O)O

Columns and labels:
PTHR-delNt = biological target: T1, PTHR-delNt (Homo sapiens, UniProt Q03431, DEL24-181); test: Competition binding in COS-7 cell membranes with 125I-[Aib1,3,M]PTH(1-15)NH2 tracer; details: COS-7 membranes cotransfected with negative-dominant Gαs, read-out: PTHR-delNT (COS-7) IC50
T1 construct: expressed in transfected cells; host or cells: COS-7 cells, transient co-transfection; membranes prepared
T1 sequence (Q03431 with tags, fused parts or gaps DEL24-181): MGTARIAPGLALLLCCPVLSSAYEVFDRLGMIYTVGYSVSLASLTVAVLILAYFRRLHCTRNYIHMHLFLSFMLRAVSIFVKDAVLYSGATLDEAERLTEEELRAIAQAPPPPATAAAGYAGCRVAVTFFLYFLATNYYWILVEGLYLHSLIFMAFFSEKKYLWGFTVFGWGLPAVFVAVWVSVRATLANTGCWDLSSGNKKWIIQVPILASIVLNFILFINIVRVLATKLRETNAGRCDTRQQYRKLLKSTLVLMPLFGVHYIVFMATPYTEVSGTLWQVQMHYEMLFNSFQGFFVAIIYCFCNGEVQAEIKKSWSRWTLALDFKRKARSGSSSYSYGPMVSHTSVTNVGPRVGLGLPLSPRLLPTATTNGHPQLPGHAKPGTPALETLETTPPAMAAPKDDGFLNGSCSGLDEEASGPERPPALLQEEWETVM
Summary of the method: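 IC50 from four-parameter logistic fitting of specific tracer binding, extrapolated to maximal [Aib1,3,M]PTH(1-15)NH2 inhibition when displacement was incomplete. Competitor peptides (3×10^−9 to 1×10^−5 M) and 125I-[Aib1,3,M]PTH(1-15)NH2 were incubated 90 min, 21 °C, with membranes (20 µg/well) of COS-7 cells expressing N-terminally truncated (Δ24–181) human PTHR with dominant-negative Gαs; 1×10^−6 M unlabeled tracer peptide defined non-specific binding.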

ROS 17/2.8 cells = biological target: T2, ROS 17/2.8 cells (Rattus norvegicus, UniProt P25961); details: position-20 substitutions in PTH(1-31)NH2; cited from earlier work
T2 construct: ROS 17/2.8 cells are rat osteosarcoma cells and express the endogenous PTHR; host or cells: ROS 17/2.8 cells
T2 sequence (P25961 27-591): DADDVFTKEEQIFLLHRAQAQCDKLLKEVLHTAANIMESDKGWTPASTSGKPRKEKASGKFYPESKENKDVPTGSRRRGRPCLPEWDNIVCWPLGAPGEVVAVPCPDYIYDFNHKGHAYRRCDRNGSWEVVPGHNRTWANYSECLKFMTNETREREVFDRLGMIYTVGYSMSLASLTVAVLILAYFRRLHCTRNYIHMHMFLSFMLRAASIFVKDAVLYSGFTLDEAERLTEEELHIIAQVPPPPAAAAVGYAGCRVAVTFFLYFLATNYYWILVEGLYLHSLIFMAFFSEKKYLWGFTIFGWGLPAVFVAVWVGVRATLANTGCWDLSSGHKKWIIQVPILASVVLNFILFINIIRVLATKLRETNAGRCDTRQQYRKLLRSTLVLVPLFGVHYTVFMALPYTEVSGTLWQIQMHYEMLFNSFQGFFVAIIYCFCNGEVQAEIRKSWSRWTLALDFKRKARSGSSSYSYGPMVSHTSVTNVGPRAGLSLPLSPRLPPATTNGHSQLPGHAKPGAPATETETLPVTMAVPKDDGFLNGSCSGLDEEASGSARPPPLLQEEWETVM

[1] = Circular dichroism spectroscopy, helical residues per peptide chain; assay type: physicochemical; details: calculated from [θ]222
Summary of the method: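 Helical residue count per peptide chain derived from 222 nm mean residue ellipticity via −[θ]222×30/28,000. Spectra taken at 20 °C as four-scan averages, with concentrations verified by absorbance at 280 nm (single tryptophan, 5700 M^−1).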

[2] = [Ala1,Arg19]hPTH(1-31)NH2 analogs

IC50 (PTHR-delNt; hPTH(1-31)NH2 analogs)	CD helical residues ([1]; hPTH(1-31)NH2 analogs)	IC50 (PTHR-delNt; [2])	CD helical residues [1, 2]	SMILES	reduction of cAMP-stimulating potency (ROS 17/2.8 cells)
10.6 µM	9			CC[C@H](C)[C@H](NC(=O)[C@H](CCC(=O)O)NC(=O)[C@H](CO)NC(=O)[C@@H](NC(=O)[C@@H](N)CO)C(C)C)C(=O)N[C@@H](CCC(N)=O)C(=O)N[C@@H](CC(C)C)C(=O)N[C@@H](CCSC)C(=O)N[C@@H](Cc1c[nH]cn1)C(=O)N[C@@H](CC(N)=O)C(=O)N[C@@H](CC(C)C)C(=O)NCC(=O)N[C@@H](CCCCN)C(=O)N[C@@H](Cc1c[nH]cn1)C(=O)N[C@@H](CC(C)C)C(=O)N[C@@H](CC(N)=O)C(=O)N[C@@H](CO)C(=O)N[C@@H](CCSC)C(=O)N[C@@H](CCC(=O)O)C(=O)N[C@@H](CCCNC(N)=O)C(=O)N[C@H](C(=O)N[C@@H](CCC(=O)O)C(=O)N[C@@H](Cc1c[nH]c2ccccc12)C(=O)N[C@@H](CC(C)C)C(=O)N[C@@H](CCCNC(=N)N)C(=O)N[C@@H](CCCCN)C(=O)N[C@@H](CCCCN)C(=O)N[C@@H](CC(C)C)C(=O)N[C@@H](CCC(N)=O)C(=O)N[C@@H](CC(=O)O)C(=O)N[C@H](C(N)=O)C(C)C)C(C)C [Arg^20→Cit]	8 fold
		0.179 ± 0.041 µM	9	CC[C@H](C)[C@H](NC(=O)[C@H](CCC(=O)O)NC(=O)[C@H](CO)NC(=O)[C@@H](NC(=O)[C@H](C)N)C(C)C)C(=O)N[C@@H](CCC(N)=O)C(=O)N[C@@H](CC(C)C)C(=O)N[C@@H](CCSC)C(=O)N[C@@H](Cc1c[nH]cn1)C(=O)N[C@@H](CC(N)=O)C(=O)N[C@@H](CC(C)C)C(=O)NCC(=O)N[C@@H](CCCCN)C(=O)N[C@@H](Cc1c[nH]cn1)C(=O)N[C@@H](CC(C)C)C(=O)N[C@@H](CC(N)=O)C(=O)N[C@@H](CC1CCCCC1)C(=O)N[C@@H](CCSC)C(=O)N[C@@H](CCCNC(=N)N)C(=O)N[C@@H](CCCNC(=N)N)C(=O)N[C@H](C(=O)N[C@@H](CCC(=O)O)C(=O)N[C@@H](Cc1c[nH]c2ccccc12)C(=O)N[C@@H](CC(C)C)C(=O)N[C@@H](CCCNC(=N)N)C(=O)N[C@@H](CCCCN)C(=O)N[C@@H](CCCCN)C(=O)N[C@@H](CC(C)C)C(=O)N[C@@H](CCC(N)=O)C(=O)N[C@@H](CC(=O)O)C(=O)N[C@H](C(N)=O)C(C)C)C(C)C [Ser^17→Cha] (H-AVSEIQLMHNLGKHLN[Cha]MRRVEWLRKKLQDV-NH2; N-terminus assumed)	
